Data: ChEMBL document CHEMBL6114967, “Design and synthesis of novel sulfur-substituted triptolide with the ability to induce autophagy through inhibition of SRSF1 expression” (Eur J Med Chem, 2025)
Active and inactive are the calls of the source. The rule behind the calls is not given here.

What was measured:
HGC-27 [1] = assay: Antiproliferative activity against human HGC-27 cells assessed as inhibition of cell proliferation incubated for 72 hrs by MTT assay; type: functional, cell-based; conditions: HGC-27, 72 h
HepG2 = assay: Antiproliferative activity against human HepG2 cells assessed as inhibition of cell proliferation incubated for 72 hrs by MTT assay; type: functional, cell-based; conditions: HepG2, 72 h
B16-F10 = assay: Antiproliferative activity against mouse B16-F10 cells assessed as inhibition of cell proliferation incubated for 72 hrs by MTT assay; type: functional, cell-based; conditions: B16-F10, 72 h
U-251 = assay: Antiproliferative activity against human U-251 cells assessed as inhibition of cell proliferation incubated for 72 hrs by MTT assay; type: functional, cell-based; conditions: U-251, 72 h
BGC-823 = assay: Antiproliferative activity against human BGC-823 cells assessed as inhibition of cell proliferation incubated for 72 hrs by MTT assay; type: functional, cell-based; conditions: BGC-823, 72 h
MCF7 = assay: Antiproliferative activity against human MCF7 cells assessed as inhibition of cell proliferation incubated for 72 hrs by MTT assay; type: functional, cell-based; conditions: MCF7, 72 h
A549 = assay: Antiproliferative activity against human A549 cells assessed as inhibition of cell proliferation incubated for 72 hrs by MTT assay; type: functional, cell-based; conditions: A549, 72 h
AGS [2] = assay: Antiproliferative activity against human AGS cells assessed as inhibition of cell proliferation incubated for 72 hrs by MTT assay; type: functional, cell-based
HCT-116 = assay: Antiproliferative activity against human HCT-116 cells assessed as inhibition of cell proliferation incubated for 72 hrs by MTT assay; type: functional, cell-based; conditions: HCT-116, 72 h
SGC-7901 = assay: Antiproliferative activity against human SGC-7901 cells assessed as inhibition of cell proliferation incubated for 72 hrs by MTT assay; type: functional, cell-based; conditions: SGC-7901, 72 h
[3] = Antiproliferative activity against human LO2 cells assessed as inhibition of cell proliferation incubated for 72 hrs by MTT assay; type: toxicity, cell-based, L02
[4] = Selectivity index, ratio of IC50 for antiproliferative activity against human LO2 cells to IC50 for antiproliferative activity against human AGS cells; type: cell-based; conditions: LO2 cells and AGS cells, read-out: Ratio IC50
[5] = Selectivity index, ratio of IC50 for antiproliferative activity against human LO2 cells to IC50 for antiproliferative activity against human HGC-27 cells; type: toxicity, cell-based; conditions: LO2 cells and HGC-27 cells, read-out: Ratio IC50
AGS [6] = assay: Induction of apoptosis in human AGS cells assessed as early apoptotic cells at 0.1 uM incubated for 48 hrs by annexin V-FITC and PI staining based flow cytometry analysis (reference value: 4.44%); type: functional
[7] = Toxicity in male ICR mouse assessed as animal death at 2 mg/kg, ip measured after 4 days; type: organism-based; conditions: in vivo, 96 h, time 4 day
[8] = Acute toxicity in male ICR mouse assessed as appearance of bright cytoplasm at 2 mg/kg, ip measured after 7 days by H and E staining based light microscopic analysis; type: organism-based; conditions: in vivo, 168 h, time 7 day
HGC-27 [9] = assay: Induction of autophagy in human HGC-27 cells assessed as increase in LC3 II/LC3 I ratio in tumor tissue at 25 to 100 mg/kg, ip administered daily; type: functional, organism-based; conditions: dose 25-100 mg/kg
HGC-27 [10] = assay: Induction of apoptosis in human HGC-27 cells assessed as early apoptotic cells at 0.1 uM incubated for 48 hrs by annexin V-FITC and PI staining based flow cytometry analysis (reference value: 3.13%); type: functional
AGS [11] = assay: Induction of apoptosis in human AGS cells assessed as late apoptotic cells at 0.1 uM incubated for 48 hrs by annexin V-FITC and PI staining based flow cytometry analysis (reference value: 3.15%); type: functional
HGC-27 [12] = assay: Induction of apoptosis in human HGC-27 cells assessed as late apoptotic cells at 0.1 uM incubated for 48 hrs by annexin V-FITC and PI staining based flow cytometry analysis (reference value: 5.02%); type: functional
[13] = Acute toxicity in male ICR mouse assessed as appearance of unclear cell boundaries at 2 mg/kg, ip measured after 7 days by H and E staining based light microscopic analysis; type: organism-based; conditions: in vivo, 168 h, time 7 day
[14] = Acute toxicity in male ICR mouse assessed as enlarged hepatocyte volume at 2 mg/kg, ip measured after 7 days by H and E staining based light microscopic analysis; type: organism-based; conditions: in vivo, 168 h, time 7 day
AGS [15] = assay: Induction of apoptosis in human AGS cells assessed as viable cells at 0.1 uM incubated for 48 hrs by annexin V-FITC and PI staining based flow cytometry analysis (reference value: 92.0%); type: functional; conditions: read-out: Activity
HGC-27 [16] = assay: Induction of apoptosis in human HGC-27 cells assessed as viable cells at 0.1 uM incubated for 48 hrs by annexin V-FITC and PI staining based flow cytometry analysis (reference value: 91.8%); type: functional; conditions: read-out: Activity
[17] = Toxicity in male ICR mouse assessed as body weight loss at 2 mg/kg, ip measured after 4 days; type: organism-based; conditions: in vivo, 96 h, time 4 day
[18] = Acute toxicity in male ICR mouse assessed as abnormal hepatocyte morphology at 2 mg/kg, ip measured after 7 days by H and E staining based light microscopic analysis; type: organism-based; conditions: in vivo, 168 h, time 7 day
HGC-27 [19] = assay: Antitumor activity against human HGC-27 cells xenografted in male BALB/c nude mouse assessed as tumor growth inhibition at 0.5 mg/kg, ip administered every day for 15 days relative to control; type: functional; conditions: HGC-27, 360 h, time 15 day, read-out: TGI
AGS [20] = assay: Induction of apoptosis in human AGS cells assessed as necrotic cells at 0.1 uM incubated for 48 hrs by annexin V-FITC and PI staining based flow cytometry analysis (reference value: 0.44%); type: functional
HGC-27 [21] = assay: Induction of apoptosis in human HGC-27 cells assessed as necrotic cells at 0.1 uM incubated for 48 hrs by annexin V-FITC and PI staining based flow cytometry analysis (reference value: 0.062%); type: functional
[22] = Acute toxicity in male ICR mouse assessed as appearance of empty cytoplasm at 2 mg/kg, ip measured after 7 days by H and E staining based light microscopic analysis; type: organism-based; conditions: in vivo, 168 h, time 7 day

Structure (SMILES) | IC50 (HGC-27 [1]) [nM] | IC50 (HepG2) [nM] | IC50 (B16-F10) [nM] | IC50 (U-251) [nM] | IC50 (BGC-823) [nM] | IC50 (MCF7) [nM] | IC50 (A549) [nM] | IC50 (AGS [2]) [nM] | IC50 (HCT-116) [nM] | IC50 (SGC-7901) [nM] | IC50 at 72 h [3] [nM] | selectivity ratio [4] | selectivity ratio [5] | further results
CC(C)[C@]12O[C@H]1[C@@H]1O[C@@]13[C@@]1(C)CCC4=C(COC4=O)[C@@H]1C[C@@H]1O[C@@]13C2=O [TRIPTONIDE] | 100 | 50 | 20 | 20 | 90 | 50 | 460 | 50 | 130 | 110 | – | – | – | –
CC(C)[C@]12O[C@H]1[C@@H]1O[C@@]13[C@@]1(C)CCC4=C([C@H](O)OC4=S)[C@@H]1C[C@@H]1O[C@@]13C2=O | > 10000 | > 10000 | > 10000 | > 10000 | > 10000 | > 10000 | > 10000 | > 10000 | 8530 | > 10000 | – | – | – | –
CC(C)[C@]12O[C@H]1[C@@H]1O[C@]13[C@]1(O[C@H]1C[C@H]1C4=C(CC[C@@]13C)C(=S)O[C@H]4O)[C@@H]2O | > 10000 | > 10000 | > 10000 | > 10000 | > 10000 | > 10000 | > 10000 | > 10000 | 5590 | > 10000 | – | – | – | –
CC(C)[C@]12O[C@H]1[C@@H]1O[C@]13[C@]1(O[C@H]1C[C@H]1C4=C(CC[C@@]13C)C(=S)O[C@H]4O)[C@H]2O | > 10000 | > 10000 | > 10000 | > 10000 | > 10000 | > 10000 | > 10000 | > 10000 | > 10000 | > 10000 | – | – | – | –
CC(C)[C@]12O[C@H]1[C@@H]1O[C@]13[C@]1(O[C@H]1C[C@H]1C4=C(CC[C@@]13C)C(=S)OC4)[C@H]2O | 700 | 1870 | 1460 | 6320 | 3660 | 3040 | > 10000 | 2580 | 1340 | 4830 | 6910 | 2.68 | 12.2 | –
CC(C)[C@]12O[C@H]1[C@@H]1O[C@]13[C@]1(O[C@H]1C[C@H]1C4=C(CC[C@@]13C)C(=O)OC4)[C@@H]2O [TRIPTOLIDE] | 20 | 60 | 3 | 20 | 60 | 70 | 40 | 40 | 10 | 40 | 40 | 1.08 | 1.89 | Activity (AGS [6]): 50.5%; Activity [7]: Toxic; Activity [8]: Toxic; Activity (HGC-27 [9]): inactive; Activity (HGC-27 [10]): 34%; Activity (AGS [11]): 37.9%; Activity (HGC-27 [12]): 17.4%; Activity [13]: Toxic; Activity [14]: Toxic; viability at 0.1 µM (AGS [15]): 10%; viability at 0.1 µM (HGC-27 [16]): 48.5%; Activity [17]: Toxic; Activity [18]: Toxic; inhibition in vivo at 0.5 mg/kg (HGC-27 [19]): 97.2%; Activity (AGS [20]): 1.65%; Activity (HGC-27 [21]): 0.16%; Activity [22]: Toxic
CC(C)[C@]12O[C@H]1[C@@H]1O[C@@]13[C@@]1(C)CCC4=C(COC4=S)[C@@H]1C[C@@H]1O[C@@]13C2=O | 620 | 630 | 1030 | 2430 | 1330 | 1790 | > 10000 | 1030 | 520 | 1880 | 3350 | 3.26 | 5.43 | –
